Experiment [1] has as its system TC-71 (Ewing's sarcoma) cells. Kind of experiment: Cell proliferation assay, TC-71 (Alamar Blue). The conditions noted are these: 72 h with compound, EC50 ranges as class symbols. In kind it is cell-based. The protocol: Cell Proliferation Assays
Compounds were tested for their anti-proliferative effects in the TC-71 (Ewing's sarcoma) and HCT 116 (colorectal carcinoma) cancer cell lines in vitro. Published scientific data has described that interference with the Insulin-like Growth Factor-1 Receptor (IGF-1R) signaling pathway reduces the proliferation of TC-71 cells. Therefore TC-71 cells served as a positive control cell line for monitoring the activity of compounds against IGF-1R-mediated cell proliferation. […] Therefore the HCT 116 cell line served as a negative control.
2000 TC-71 cells or 1000 HCT 116 cells were seeded per well in 180 μL IMDM+10% foetal calf serum (FCS)+ penicillin/streptomycin into 96-well microtitre plates. The plates were placed in a cell culture incubator (37° C. in a humidified atmosphere of […]/5 CO2) overnight. The following day, serial dilutions of compounds, prepared in duplicates, were transferred onto the cell layers (controls without compound). The cells were cultivated for a further 72 h in the cell culture incubator. 20 μL of Alamar Blue™ (Serotec Ltd, Düsseldorf, Germany) was added to each well and the plates incubated for 7 h in the cell culture incubator. Fluorescence (extinction wavelength of 544 nm and emission at 590 nm) was then measured and the normalized data fitted by iterative calculation with a sigmoidal curve analysis program (Graph Pad Prism) with a variable Hill slope to determine the IC50 values.
(In general: The colour change of resazurin is a common sign of viable cells or microbes.)

For experiment [2], the target named is T1, cytoplasmic kinase domain of human IGF-1R (IGF-1R-GST) (Homo sapiens, UniProt P08069).
T1 construct: cytoplasmic kinase domain of human IGF-1R (amino acids 964-1370); GST (glutathione-S-transferase); made in house; host or cells: High Five insect cells (Invitrogen)
T1 sequence (P08069 964-1367 limits assumed): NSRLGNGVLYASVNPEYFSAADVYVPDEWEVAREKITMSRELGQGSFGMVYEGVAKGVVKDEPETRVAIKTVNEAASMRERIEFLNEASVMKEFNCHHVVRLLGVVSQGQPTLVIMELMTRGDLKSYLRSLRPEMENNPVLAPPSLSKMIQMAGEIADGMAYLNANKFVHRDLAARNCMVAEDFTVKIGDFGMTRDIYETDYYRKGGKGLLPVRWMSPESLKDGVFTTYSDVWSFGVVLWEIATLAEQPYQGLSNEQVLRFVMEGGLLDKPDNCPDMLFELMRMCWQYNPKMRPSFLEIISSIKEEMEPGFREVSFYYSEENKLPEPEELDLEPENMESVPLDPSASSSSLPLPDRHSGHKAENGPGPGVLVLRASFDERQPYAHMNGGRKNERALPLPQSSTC
Kind of experiment: Insulin-like growth factor-1 receptor (IGF-1R) kinase assay (DELFIA). In kind it is biochemical. The conditions noted are these: IGF-1R-GST kinase activity, read-out: IGF1R IC50. The gist of the method:
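GST-tagged IGF-1R cytoplasmic kinase domain phosphorylates pEY with biotinylated pEY for 40 min at RT; EDTA stop. Product captured on streptavidin, detected with europium anti-phosphotyrosine antibody by DELFIA time-resolved fluorescence; IC50 from inhibition curves.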

Take `Cc1cc(C2CCCN(CC(O)C(F)(F)F)C2)ccc1Nc1ncc(Cl)c(NCc2cccc3c2C(C)(C)C(=O)N3)n1` (racemic) [Example I-329]: the EC50 in experiment [1] was less than 50 nM. For the same compound, the IC50 in experiment [2] is 2 nM.
For `CC1(C)C(=O)Nc2cccc(CNc3nc(Nc4ccc(C5CCCN(CC(O)C(F)(F)F)C5)cc4)ncc3Cl)c21` (racemic) [Example I-333], in experiment [1], the half-maximal effective concentration (EC50) was in the range of 250 to 3000 nM. In addition, the 50% inhibitory concentration (IC50) in experiment [2] worked out at 2 nM.
`COCCN1CCCC(c2ccc(Nc3ncc(C(F)(F)F)c(NCc4cccc5c4C(C)(C)C(=O)N5)n3)c(OC)c2)C1` (racemic) [Example I-350]: in experiment [1], the 50% effective concentration (EC50) is less than 50 nM. Moreover, in experiment [2], the IC50 was found to be 0.5 nM.
As to `COc1cc(C2CCCN(CCO)C2)ccc1Nc1ncc(C(F)(F)F)c(NCc2cccc3c2C(C)(C)C(=O)N3)n1` (racemic) [Example I-351], the EC50 in experiment [1] was less than 50 nM. In experiment [2], the IC50 stood at 0.5 nM.
As for `Cc1cc(C2CCCN(CCO)C2)ccc1Nc1ncc(C(F)(F)F)c(NCc2cccc3c2C(C)(C)C(=O)N3)n1` (racemic) [Example I-354], the EC50 in experiment [1] is less than 50 nM. The IC50 in experiment [2] is 1 nM.
`COCCN1CCCC(c2ccc(Nc3ncc(C(F)(F)F)c(NCc4cccc5c4C(C)(C)C(=O)N5)n3)c(C)c2)C1` (racemic) [Example I-356]: the EC50 in experiment [1] was less than 50 nM. Further, the half-maximal inhibitory concentration (IC50) in experiment [2] is 0.8 nM.
The like results for `COCCN1CCCC(c2ccc(Nc3ncc(Br)c(NCc4cccc5c4C(C)(C)C(=O)N5)n3)cc2)C1` (racemic) [Example I-357] were, in that order, 50 to 250 nM and 0.7 nM.
As to `CC1(C)C(=O)Nc2cccc(CNc3nc(Nc4ccc(C5CCCN(CCO)C5)cc4)ncc3Br)c21` (racemic) [Example I-358], the EC50 in experiment [1] was less than 50 nM. In experiment [2], the IC50 came out at 0.7 nM.
Turning to `COCCN1CCCC(c2ccc(Nc3ncc(Br)c(NCc4cccc5c4C(C)(C)C(=O)N5)n3)c(C)c2)C1` (racemic) [Example I-359], in experiment [1], the half-maximal effective concentration (EC50) is less than 50 nM. In experiment [2], the IC50 is 0.5 nM.
The like results for `COCCN1CCCC(c2ccc(Nc3ncc(Br)c(NCc4cccc5c4C(C)(C)C(=O)N5)n3)c(OC)c2)C1` (racemic) [Example I-360] were, in that order, less than 50 nM and 0.6 nM.
For `Cc1cc(C2CCCN(CCO)C2)ccc1Nc1ncc(Br)c(NCc2cccc3c2C(C)(C)C(=O)N3)n1` (racemic) [Example I-364], in experiment [1], the EC50 was less than 50 nM. Also, in experiment [2], the IC50 was found to be 0.6 nM.
The like results for `CNC(=O)CN1CCCC(c2ccc(Nc3ncc(Br)c(NCc4cccc5c4C(C)(C)C(=O)N5)n3)cc2)C1` (racemic) [Example I-365] were, in that order, 50 to 250 nM and 1 nM.
For the compound `CNC(=O)CN1CCCC(c2ccc(Nc3ncc(Br)c(NCc4cccc5c4C(C)(C)C(=O)N5)n3)c(C)c2)C1` (racemic) [Example I-366], the EC50 in experiment [1] fell in the range of 50 to 250 nM. In addition, in experiment [2], the IC50 amounted to 2 nM.
For `CCc1cc(C2CCCN(CCOC)C2)ccc1Nc1ncc(Br)c(NCc2cccc3c2C(C)(C)C(=O)N3)n1` (racemic) [Example I-368], in experiment [1], the EC50 was less than 50 nM. Further, in experiment [2], the IC50 turned out to be 2 nM.
For `COCCN1CCCC(c2ccc(Nc3ncc(Cl)c(NCc4cccc5c4C(C)(C)C(=O)N5)n3)c(OC)c2)C1` (racemic) [Example I-371], the EC50 in experiment [1] was less than 50 nM. Further, in experiment [2], the 50% inhibitory concentration (IC50) was found to be 0.8 nM.
As to `COc1cc(C2CCCN(CCO)C2)ccc1Nc1ncc(Cl)c(NCc2cccc3c2C(C)(C)C(=O)N3)n1` (racemic) [Example I-372], the EC50 in experiment [1] was less than 50 nM. For the same compound, in experiment [2], the IC50 was 0.8 nM.
In the case of `COCCN1CCCC(c2ccc(Nc3ncc(Cl)c(NCc4cccc5c4C(C)(C)C(=O)N5)n3)c(C)c2)C1` (racemic) [Example I-373], the EC50 in experiment [1] was in the range of 50 to 250 nM. In addition, the IC50 in experiment [2] was found to be 0.4 nM.
Take `CNC(=O)CN1CCCC(c2ccc(Nc3ncc(Cl)c(NCc4cccc5c4C(C)(C)C(=O)N5)n3)cc2)C1` (racemic) [Example I-379]: in experiment [1], the EC50 is 50 to 250 nM. The IC50 in experiment [2] came to 6 nM.
As to `COCCN1CCCC(c2ccc(Nc3ncc(Cl)c(NCc4cccc5c4C(C)(C)C(=O)N5)n3)cc2)C1` (racemic) [Example I-380], in experiment [1], the EC50 lay within 50 to 250 nM. Moreover, the IC50 in experiment [2] is 2 nM.
As for `CC1(C)C(=O)Nc2cccc(CNc3nc(Nc4ccc(C5CCCN(CCO)C5)cc4)ncc3Cl)c21` (racemic) [Example I-381], the EC50 in experiment [1] lay within 50 to 250 nM. Besides, in experiment [2], the IC50 came out at 0.9 nM.
In the case of `Cc1cc(C2CCCN(CCO)C2)ccc1Nc1ncc(Cl)c(NCc2cccc3c2C(C)(C)C(=O)N3)n1` (racemic) [Example I-382], the concentration giving a half-maximal response (EC50) in experiment [1] was less than 50 nM. In experiment [2], the IC50 stood at 1 nM.
`CNC(=O)CN1CCCC(c2ccc(Nc3ncc(Cl)c(NCc4cccc5c4C(C)(C)C(=O)N5)n3)c(C)c2)C1` (racemic) [Example I-383]: the EC50 in experiment [1] was in the range of 50 to 250 nM. Moreover, in experiment [2], the IC50 stood at 2 nM.
`CCc1cc(C2CCCN(CCOC)C2)ccc1Nc1ncc(Cl)c(NCc2cccc3c2C(C)(C)C(=O)N3)n1` (racemic) [Example I-384]: the EC50 in experiment [1] fell in the range of 50 to 250 nM. For the same compound, in experiment [2], the IC50 was 6 nM.
The corresponding values for `COc1cc(N2CCNCC2)ccc1Nc1ncc(C(F)(F)F)c(NCc2cccc3c2C(C)(C)C(=O)N3)n1` [Example I-31] are less than 50 nM and 0.7 nM.
As for `CC1(C)C(=O)Nc2cccc(CNc3nc(Nc4ccc(C5CCN(C(=O)C6CCCC(=O)N6)CC5)cc4)ncc3Br)c21` (stereo not drawn) [Example I-53], in experiment [1], the EC50 fell in the range of 50 to 250 nM. In experiment [2], the IC50 amounted to 6 nM.
The corresponding values for `CC(C)(O)C(=O)N1CCC(c2ccc(Nc3ncc(Br)c(NCc4cccc5c4C(C)(C)C(=O)N5)n3)cc2)CC1` [Example I-54] are 50 to 250 nM and 7 nM.
For `CC1(C)C(=O)Nc2cccc(CNc3nc(Nc4ccc(C5CCN(C(=O)C6CCCN6)CC5)cc4)ncc3Br)c21` (stereo not drawn) [Example I-55], in experiment [1], the EC50 was 50 to 250 nM. Further, the IC50 in experiment [2] is 1 nM.
With `CC1(C)C(=O)Nc2cccc(CNc3nc(Nc4ccc(C5CCN(C(=O)C6CCN6)CC5)cc4)ncc3Br)c21` (stereo not drawn) [Example I-56], in experiment [1], the concentration for a half-maximal effect (EC50) was 250 to 3000 nM. Besides, the IC50 in experiment [2] came out at 2 nM.
The like results for `Cc1cc(C2CCN(C(=O)CN(C)C)CC2)ccc1Nc1ncc(Br)c(NCc2cccc3c2C(C)(C)C(=O)N3)n1` [Example I-57] were, in that order, less than 50 nM and 0.76 nM.
In the case of `CN(C)CC(=O)N1CCC(n2cc(Nc3ncc(Cl)c(NCc4cccc5c4C(C)(C)C(=O)N5)n3)cn2)CC1` [Example I-66], the EC50 in experiment [1] fell in the range of 250 to 3000 nM. Further, the IC50 in experiment [2] was 6 nM.
With `Cc1cc(C2CCN(C(=O)N(C)C)CC2)ccc1Nc1ncc(Cl)c(NCc2cccc3c2C(C)(C)C(=O)N3)n1` [Example I-67], the half-maximal effective concentration (EC50) in experiment [1] was in the range of 50 to 250 nM. Further, the IC50 in experiment [2] amounted to 15 nM.
Regarding `COc1cc(C2CCN(C(=O)CN(C)C)CC2)ccc1Nc1ncc(Br)c(NCc2cccc3c2C(C)(C)C(=O)N3)n1` [Example I-68], the EC50 in experiment [1] was less than 50 nM. In addition, the IC50 in experiment [2] turned out to be 0.4 nM.
For the compound `Cc1cc(C2CCN(C(=O)CN(C)C)CC2)ccc1Nc1ncc(Cl)c(NCc2cccc3c2C(C)(C)C(=O)N3)n1` [Example I-69], the EC50 in experiment [1] was less than 50 nM. For the same compound, the half-maximal inhibitory concentration (IC50) in experiment [2] was 1 nM.
With `COc1cc(N2CCN(C)CC2)ccc1Nc1ncc(Cl)c(NCc2cccc3c2C(C)(C)C(=O)N3)n1` [Example I-97], the EC50 in experiment [1] is less than 50 nM. The IC50 in experiment [2] is 2 nM.
As for `CN1CCC(n2cc(Nc3ncc(Cl)c(NCc4cccc5c4C(C)(C)C(=O)N5)n3)cn2)CC1` [Example I-102], the EC50 in experiment [1] fell in the range of 50 to 250 nM. For the same compound, the IC50 in experiment [2] worked out at 4 nM.
For `Cc1cc(C2CCN(C)CC2)ccc1Nc1ncc(Br)c(NCc2cccc3c2C(C)(C)C(=O)N3)n1` [Example I-103], the EC50 in experiment [1] is less than 50 nM. Besides, the IC50 in experiment [2] amounted to 0.69 nM.
The corresponding values for `COc1cc(N2CCN(C)CC2)ccc1Nc1ncc(C(F)(F)F)c(NCc2cccc3c2C(C)(C)C(=O)N3)n1` [Example I-104] are less than 50 nM and 0.1 nM.
`COc1cc(N2CCN(C)CC2)ccc1Nc1ncc(C(F)(F)F)c(NCc2cccc3c2C2(CC2)C(=O)N3)n1` [Example I-160]: the EC50 in experiment [1] was 250 to 3000 nM. Moreover, the IC50 in experiment [2] came out at 4 nM.
Consider `Cc1cc(C2CCN(S(C)(=O)=O)CC2)ccc1Nc1ncc(Cl)c(NCc2cccc3c2C(C)(C)C(=O)N3)n1` [Example I-203], for which the EC50 in experiment [1] is 250 to 3000 nM. Besides, the half-maximal inhibitory concentration (IC50) in experiment [2] was determined as 14 nM.
In the case of `COCCN1CCC(c2ccc(Nc3ncc(Cl)c(NCc4cccc5c4C(C)(C)C(=O)N5)n3)cc2)CC1` [Example I-204], the EC50 in experiment [1] fell in the range of 50 to 250 nM. In addition, in experiment [2], the half-inhibitory concentration (IC50) came out at 2 nM.
The corresponding values for `COCCN1CCC(c2ccc(Nc3ncc(Br)c(NCc4cccc5c4C(C)(C)C(=O)N5)n3)cc2)CC1` [Example I-208] are 50 to 250 nM and 0.68 nM.
Consider `CC1(C)C(=O)Nc2cccc(CNc3nc(Nc4ccc(C5CCN(CCO)CC5)cc4)ncc3Br)c21` [Example I-209], for which the EC50 in experiment [1] fell in the range of 50 to 250 nM. The IC50 in experiment [2] turned out to be 1 nM.

A word on the EC50: it is the concentration that produces a half-maximal response. Broadly, the IC50 is the concentration that gives 50% inhibition.

These data come from patent publication US8546443B2, “Benzylic oxindole pyrimidines” (Boehringer Ingelheim International GmbH, priority 2010, dated 2013).
